According to patent publication US20250263370A1 (Tay Therapeutics Limited, priority 2022, published 2025):
Values joined by “and” are separate entries in the source; they are usually repeats but may differ in a detail not shown here. Identical values can stand only once. “Also recorded” adds a separate entry of the source.

Tested on: collagen-induced arthritis
Assay: Collagen-induced arthritis (CIA) model in rats: body weight, paw volume, clinical scores, clinical observations; for Average detailed clinical score, left hind limb: key of the grades not given here; for Average detailed clinical score, right hind limb: key of the grades not given here; for Detailed Clinical Scores, left forelimb: key of the grades not given here; for Detailed Clinical Scores, left hind limb: key of the grades not given here; for Detailed Clinical Scores, right forelimb: key of the grades not given here; for Detailed Clinical Scores, right hind limb: key of the grades not given here; for Detailed Clinical Scores, score: key of the grades not given here; for Mean overall clinical score ± SD: key of the grades not given here; for Overall clinical score: key of the grades not given here
Settings: for Mean animal paw volume ± SD: group mean; for Detailed Clinical Scores, left forelimb / Detailed Clinical Scores, left hind limb / Detailed Clinical Scores, right forelimb / Detailed Clinical Scores, right hind limb / Detailed Clinical Scores, score: individual animals ID 1-8; for Overall clinical score: individual animals #1-8

In the case of `C[C@@H]1C[C@H]2[C@@H]3CCC4=CC(=O)C=C[C@]4(C)[C@@]3(F)[C@@H](O)C[C@]2(C)[C@@]1(O)C(=O)CO` [dexamethasone], the “Average animal paw volume percent change” value (CIA rats, Day 0, left hind paw (L)) is reported as 0.00%, the “Animal paw volume Day 0 L” value (CIA rats, Day 0, left paw, individual animals) is reported as 1.35 mL and 1.31 mL and 1.39 mL and 1.33 mL and 1.30 mL (2×) and 1.34 mL and 1.36 mL and the “Average animal paw volume percent change” value (CIA rats, Day 0, right hind paw (R)) is reported as 0.00%. For the same compound, the “Animal paw volume Day 0 R” value (CIA rats, Day 0, right paw, individual animals) was 1.34 mL and 1.30 mL (2×) and 1.38 mL and 1.35 mL and 1.29 mL and 1.36 mL and 1.37 mL, the “Average animal paw volume percent change” value (CIA rats, Day 6, left hind paw (L)) was −3.37% and the “Animal paw volume Day 6 L” value (CIA rats, Day 6, left paw, individual animals) was 1.31 mL and 1.29 mL (3×) and 1.34 mL and 1.26 mL (2×) and 1.28 mL. The “Average animal paw volume percent change” value (CIA rats, Day 6, right hind paw (R)) was −3.26%, the “Animal paw volume Day 6 R” value (CIA rats, Day 6, right paw, individual animals) was 1.30 mL (3×) and 1.28 mL (2×) and 1.34 mL and 1.27 mL and 1.26 mL and the “Average animal paw volume percent change” value (CIA rats, Day 12, left hind paw (L)) was −4.94%. For the same compound, the “Animal paw volume Day 12 L” value (CIA rats, Day 12, left paw, individual animals) was 1.21 mL (2×) and 1.37 mL and 1.28 mL (2×) and 1.22 mL and 1.30 mL and 1.29 mL, the “Average animal paw volume percent change” value (CIA rats, Day 12, right hind paw (R)) was −5.21% and the “Animal paw volume Day 12 R” value (CIA rats, Day 12, right paw, individual animals) was 1.25 mL (2×) and 1.26 mL (2×) and 1.37 mL and 1.27 mL and 1.18 mL and 1.29 mL. For the same compound, the “Average animal paw volume percent change” value (CIA rats, Day 13, left hind paw (L)) was −3.57%, the “Animal paw volume Day 13 L” value (CIA rats, Day 13, left paw, individual animals) was 1.23 mL and 1.24 mL and 1.40 mL and 1.29 mL (2×) and 1.30 mL and 1.25 mL and 1.31 mL and the “Average animal paw volume percent change” value (CIA rats, Day 13, right hind paw (R)) was −4.08%. The “Animal paw volume Day 13 R” value (CIA rats, Day 13, right paw, individual animals) was 1.26 mL and 1.27 mL and 1.38 mL and 1.25 mL and 1.28 mL and 1.21 mL and 1.31 mL and 1.29 mL, the “Average animal paw volume percent change” value (CIA rats, Day 14, left hind paw (L)) was −4.60% and the “Animal paw volume Day 14 L” value (CIA rats, Day 14, left paw, individual animals) was 1.24 mL (3×) and 1.39 mL and 1.27 mL and 1.28 mL and 1.29 mL and 1.25 mL. The “Average animal paw volume percent change” value (CIA rats, Day 14, right hind paw (R)) was −5.07%, the “Animal paw volume Day 14 R” value (CIA rats, Day 14, right paw, individual animals) was 1.26 mL (4×) and 1.38 mL and 1.23 mL and 1.20 mL and 1.29 mL and the “Average animal paw volume percent change” value (CIA rats, Day 15, left hind paw (L)) was −5.47%. The “Animal paw volume Day 15 L” value (CIA rats, Day 15, left paw, individual animals) was 1.23 mL and 1.21 mL and 1.36 mL and 1.28 mL and 1.26 mL and 1.16 mL and 1.33 mL and 1.27 mL, the “Average animal paw volume percent change” value (CIA rats, Day 15, right hind paw (R)) was −5.41% and the “Animal paw volume Day 15 R” value (CIA rats, Day 15, right paw, individual animals) was 1.25 mL and 1.24 mL and 1.36 mL and 1.27 mL (2×) and 1.14 mL and 1.32 mL and 1.26 mL. For the same compound, the “Average animal paw volume percent change” value (CIA rats, Day 18, left hind paw (L)) was −3.01%, the “Animal paw volume Day 18 L” value (CIA rats, Day 18, left paw, individual animals) was 1.28 mL and 1.22 mL and 1.45 mL and 1.31 mL and 1.29 mL and 1.18 mL and 1.34 mL and 1.30 mL and the “Average animal paw volume percent change” value (CIA rats, Day 18, right hind paw (R)) was −3.14%. The “Animal paw volume Day 18 R” value (CIA rats, Day 18, right paw, individual animals) was 1.28 mL and 1.44 mL and 1.31 mL and 1.29 mL (2×) and 1.34 mL, the “Average animal paw volume percent change” value (CIA rats, Day 19, left hind paw (L)) was −3.33% and the “Animal paw volume Day 19 L” value (CIA rats, Day 19, left paw, individual animals) was 1.28 mL (2×) and 1.22 mL and 1.44 mL and 1.30 mL (2×) and 1.19 mL and 1.33 mL. For the same compound, the “Average animal paw volume percent change” value (CIA rats, Day 19, right hind paw (R)) was −3.57%, the “Animal paw volume Day 19 R” value (CIA rats, Day 19, right paw, individual animals) was 1.27 mL (2×) and 1.22 mL and 1.44 mL and 1.31 mL and 1.18 mL and 1.32 mL and 1.30 mL and the “Average animal paw volume percent change” value (CIA rats, Day 21, left hind paw (L)) was −3.56%. For the same compound, the “Animal paw volume Day 21 L” value (CIA rats, Day 21, left paw, individual animals) was 1.26 mL and 1.22 mL and 1.43 mL and 1.31 mL (2×) and 1.30 mL (2×) and 1.18 mL, the “Average animal paw volume percent change” value (CIA rats, Day 21, right hind paw (R)) was −3.51% and the “Animal paw volume Day 21 R” value (CIA rats, Day 21, right paw, individual animals) was 1.26 mL and 1.22 mL and 1.43 mL and 1.31 mL and 1.30 mL (2×) and 1.18 mL and 1.32 mL. For the same compound, the “signs of disease over the 21-day period” value (CIA rats, daily P.O. for 21 days) was “No animals in group 3 (dexamethasone) ever received a score indicating that they exhibited symptoms of disease; also recorded: never exhibited any signs of disease”, the “effect on hind paw volume” value (CIA rats, daily P.O. for 21 days, listed as Dexamethasone) was “effective at controlling paw volume; also recorded: effective at preventing any change in paw volume throughout the entire 21-day period” and the “animals showing signs of disease” value (CIA rats, daily P.O., day 12) was “No animals”. The “Mean animal paw volume ± SD” value (Day 0, L paw) was 1.33 mL, the “Animal paw volume percent change” value (Day 0, L paw, individual animals) was 0.00% and the “Mean animal paw volume ± SD” value (Day 0, R paw) was 1.33 mL. For the same compound, the “Animal paw volume percent change” value (Day 0, R paw, individual animals) was 0.00%, the “Average detailed clinical score, left forelimb” value (Day 0, CIA rats) was 0.00 and the “Average detailed clinical score, left hind limb” value (Day 0, CIA rats) was 0.00. For the same compound, the “Average detailed clinical score, right forelimb” value (Day 0, CIA rats) was 0.00, the “Average detailed clinical score, right hind limb” value (Day 0, CIA rats) was 0.00 and the “Average detailed clinical score, score” value (Day 0, CIA rats) was 0.00. The “Mean overall clinical score ± SD” value (Day 0, CIA rats) was 0 ± 0, the “Detailed Clinical Scores, left forelimb” value (Day 0, CIA rats) was 0 and the “Detailed Clinical Scores, left hind limb” value (Day 0, CIA rats) was 0. For the same compound, the “Detailed Clinical Scores, right forelimb” value (Day 0, CIA rats) was 0, the “Detailed Clinical Scores, right hind limb” value (Day 0, CIA rats) was 0 and the “Detailed Clinical Scores, score” value (Day 0, CIA rats) was 0. The Overall clinical score (Day 0, CIA rats) was 0, the “Mean animal paw volume ± SD” value (Day 6, L paw) was 1.29 mL and the “Animal paw volume percent change” value (Day 6, L paw, individual animals) was −2.97% and −1.53% and −3.61% and −3.02% and −3.09% and −3.08% and −4.12% and −5.51%. The “Mean animal paw volume ± SD” value (Day 6, R paw) was 1.29 mL, the “Animal paw volume percent change” value (Day 6, R paw, individual animals) was −3.00% and −1.16% and −2.91% and −3.72% and −1.56% and −2.70% and −5.90% and −5.13% and the “Average detailed clinical score, left forelimb” value (Day 6, CIA rats) was 0.00. For the same compound, the “Average detailed clinical score, left hind limb” value (Day 6, CIA rats) was 0.00, the “Average detailed clinical score, right forelimb” value (Day 6, CIA rats) was 0.00 and the “Average detailed clinical score, right hind limb” value (Day 6, CIA rats) was 0.00. For the same compound, the “Average detailed clinical score, score” value (Day 6, CIA rats) was 0.00, the “Mean overall clinical score ± SD” value (Day 6, CIA rats) was 0 ± 0 and the “Detailed Clinical Scores, left forelimb” value (Day 6, CIA rats) was 0. For the same compound, the “Detailed Clinical Scores, left hind limb” value (Day 6, CIA rats) was 0, the “Detailed Clinical Scores, right forelimb” value (Day 6, CIA rats) was 0 and the “Detailed Clinical Scores, right hind limb” value (Day 6, CIA rats) was 0. For the same compound, the “Detailed Clinical Scores, score” value (Day 6, CIA rats) was 0, the Overall clinical score (Day 6, CIA rats) was 0 and the “Mean animal paw volume ± SD” value (Day 12, L paw) was 1.27 mL. The “Animal paw volume percent change” value (Day 12, L paw, individual animals) was −10.41% and −7.66% and −1.44% and −3.40% and −1.54% and −6.54% and −3.00% and −5.51%, the “Mean animal paw volume ± SD” value (Day 12, R paw) was 1.26 mL and the “Animal paw volume percent change” value (Day 12, R paw, individual animals) was −6.74% and −3.09% and −0.73% and −7.43% and −1.56% and −9.27% and −7.01% and −5.86%. For the same compound, the “Average detailed clinical score, left forelimb” value (Day 12, CIA rats) was 0.00, the “Average detailed clinical score, left hind limb” value (Day 12, CIA rats) was 0.00 and the “Average detailed clinical score, right forelimb” value (Day 12, CIA rats) was 0.00. For the same compound, the “Average detailed clinical score, right hind limb” value (Day 12, CIA rats) was 0.00, the “Average detailed clinical score, score” value (Day 12, CIA rats) was 0.00 and the “Mean overall clinical score ± SD” value (Day 12, CIA rats) was 0 ± 0. For the same compound, the “Detailed Clinical Scores, left forelimb” value (Day 12, CIA rats) was 0, the “Detailed Clinical Scores, left hind limb” value (Day 12, CIA rats) was 0 and the “Detailed Clinical Scores, right forelimb” value (Day 12, CIA rats) was 0. For the same compound, the “Detailed Clinical Scores, right hind limb” value (Day 12, CIA rats) was 0, the “Detailed Clinical Scores, score” value (Day 12, CIA rats) was 0 and the Overall clinical score (Day 12, CIA rats) was 0. The “Mean animal paw volume ± SD” value (Day 13, L paw) was 1.28 mL, the “Animal paw volume percent change” value (Day 13, L paw, individual animals) was −8.92% and −5.36% and 0.72% and −3.02% and 0.00% and −4.23% and −2.25% and −5.51% and the “Mean animal paw volume ± SD” value (Day 13, R paw) was 1.28 mL. The “Animal paw volume percent change” value (Day 13, R paw, individual animals) was −5.99% and −2.32% and 0.36% and −7.43% and −0.78% and −6.95% and −3.69% and −5.86%.
